Assay results taken from article PMC11783601, “Analogue-Sensitive Inhibition of Histone Demethylases Uncovers Member-Specific Function in Ribosomal Protein Synthesis” (Journal of the American Chemical Society, 2025).

T1: wild type KDM4A (Homo sapiens, UniProt O75164)
T1 construct: human KDM4A-jmjC domain (catalytic domain of KDM4A); 6xHis (N); host or cells: E. coli BL21 (DE3)
T1 sequence (O75164 142-308 limits assumed): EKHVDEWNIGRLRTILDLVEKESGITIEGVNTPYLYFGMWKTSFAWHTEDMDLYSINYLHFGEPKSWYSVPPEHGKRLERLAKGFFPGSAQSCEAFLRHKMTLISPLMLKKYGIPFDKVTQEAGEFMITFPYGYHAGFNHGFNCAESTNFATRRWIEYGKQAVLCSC

T2: KDM4A-F185A (Homo sapiens, UniProt O75164, F185A)
T2 construct: human KDM4A-jmjC domain (catalytic domain of KDM4A); 6xHis (N); host or cells: E. coli BL21 (DE3)
T2 sequence (O75164 142-308 F185A limits assumed): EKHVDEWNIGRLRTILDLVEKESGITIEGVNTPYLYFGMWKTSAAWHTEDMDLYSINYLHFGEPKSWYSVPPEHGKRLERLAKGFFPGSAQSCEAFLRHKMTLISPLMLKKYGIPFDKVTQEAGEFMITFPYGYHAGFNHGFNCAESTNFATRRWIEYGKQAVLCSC


How the values were obtained:
wild type KDM4A [1] = target: T1, wild type KDM4A; assay: Coupled fluorescence (FDH/NADH) assay, kinetic parameters with 2OG; format: biochemical; conditions: H3K9me3 demethylation, saturating peptide, 2OG as cofactor
wild type KDM4A [2] = target: T1, wild type KDM4A; assay: MALDI-MS end-point demethylase assay on H3K9me3 peptide; format: biochemical; conditions: H3K9me3 peptide, 200 µM 2OG, fixed concentration of NOG analogue
From the text: (§1) To develop an appropriate inhibitor, we selected N-oxalyl glycine (NOG, 2) scaffold because of its structural similarity with 2OG and the ability to inhibit 2OG-utilizing enzymes including KDMs (Figure 1C).[29]−[31] Substituting −CH2– at C3 of 2OG with −NH– in NOG prevents its oxidative decarboxylation by KDMs, making the inhibitor cofactor-competitive. […] We synthesized a panel of eight NOG analogues (3–10), derived from L-amino acids, carrying varied steric substituents at C4, with the reasoning that a bulky substituent at C4 would selectively fit into the expanded pocket of F185A over wild type KDM4A (Figures 2B and S1–S6, Schemes S1 and S2). The inhibitory effect of each compound was determined based on the extent of enzyme-catalyzed demethylation of a canonical peptide substrate corresponding to the N-terminus of histone 3 carrying trimethylated lysine at position 9 (H3K9me3). […] Such orthogonal inhibition of the engineered demethylase constitutes a powerful chemical probe to study the functions of a specific member of an enzyme family without issues of off-target activity.
(§2) assay (Biorad) kit with BSA concentrations as a standard. […]
8. […]
2 mM L-ascorbic acid with a total assay volume of 10 µL. Fe(II) supplement and L-ascorbic acid
Lastly, the 2OG and peptide were
positive mode and analyzed on Bruker FlexAnalysis software. The percent demethylated peptide
(§3) the multiple demethylation events on the peptide. […]

KDM4A-F185A = target: T2, KDM4A-F185A; assay: as above; format: biochemical
From the text: as §1, with “activity. […]” for “activity.”
as §2
8. Demethylase activity of the wild type and mutant KDM4 proteins on peptide substrate To monitor enzymatic activity, a demethylase activity assay was optimized and then observed through MALDI-TOF.7 Each histone demethylase assay sample included either wild type or mutant enzyme (10µM KDM4A, 7.5µM KDM4C, 10µM KDM4D, or 1µM KDM4E), 10 µM peptide, 200 µM 2OG, 50 mM Tris pH 8, […], 0-200µM NOG analogue, and 2 mM L-ascorbic acid with a total assay volume of 10 µL. Fe(II) supplement and L-ascorbic acid […]
Lastly, the 2OG and peptide were […]
positive mode and analyzed on Bruker FlexAnalysis software. The percent demethylated peptide […]
as §3
varying concentrations (0-10 µM). […] The fluorescence intensity was measured with excitation = 340 nm and emission = 490 nm on a TECAN Infinite M1000Pro. […]
The set up and analysis for IC50 of L-Leu NOG against KDM4A F185A enzyme was similar to that described in the coupled fluorescence assay section, but adjusted to function as an end point assay. […]
and varying concentration of compounds (NOGs 6, 9 and 10) and a substrate cocktail (200 µM 2OG and 60 µM H3K9me3 peptide). Different concentrations of NOG 6 were measured at one time point ranging for 1-5 hours. For 9 and 10, the same set-up remained, but enzymatic activity was measured via MALDI-TOF analysis, and relative activity and inhibition was calculated for different NOG concentrations as described above. […]
and analyzed on Bruker FlexAnalysis software. The percent demethylated peptide was calculated by first multiplying the K27me1 peak by 2 and the K27me0 peak by 3 to account for the multiple

[3] = substrate: O=C(O)CCC(=O)C(=O)O; assay: purified protein, by the assay type; conditions: other: saturating H3K9me3 peptide; pH 8.0; 37.0 °C

| Molecule | IC50 (KDM4A-F185A) | Km [3] | also measured |
| --- | --- | --- | --- |
| O=C(O)CCC(=O)C(=O)O [compound 1, 2-oxoglutarate] |  |  | kcat (wild type KDM4A [1]; listed as 2OG): 0.26 ± 0.01 min^–1; kcat (wild type KDM4A [1]; listed as 2OG 1): 0.2562±0.0072 min^–1 |
| O=C(O)CNC(=O)C(=O)O [compound 2, N-oxalyl glycine, reference compound] |  |  | inhibition of wild type KDM4A demethylase activity (MALDI-MS) (wild type KDM4A [2]): weakly inhibited; inhibition of F185A mutant demethylase activity (MALDI-MS) (KDM4A-F185A; H3K9me3 peptide, 200 µM 2OG, fixed concentration of NOG analogue): weakly inhibited |
| O=C(O)C(=O)N[C@@H](Cc1ccccc1)C(=O)O [compound 9, phenylalanine NOG] | 28.7 ± 1.3 µM |  |  |
| O=C(O)C(=O)N[C@@H](CC1CCCCC1)C(=O)O [compound 10, cyclohexyl NOG] | 4.7 ± 1.7 µM |  |  |
| wild type KDM4A (Homo sapiens) (protein) EKHVDEWNIGRLRTILDLVEKESGITIEGVNTPYLYFGMWKTSFAWHTEDMDLYSINYLHFGEPKSWYSVPPEHGKRLERLAKGFFPGSAQSCEAFLRHKMTLISPLMLKKYGIPFDKVTQEAGEFMITFPYGYHAGFNHGFNCAESTNFATRRWIEYGKQAVLCSC |  | 7.52 ± 1.2 µM |  |
| KDM4A-F185A (Homo sapiens; F185A) (protein) EKHVDEWNIGRLRTILDLVEKESGITIEGVNTPYLYFGMWKTSAAWHTEDMDLYSINYLHFGEPKSWYSVPPEHGKRLERLAKGFFPGSAQSCEAFLRHKMTLISPLMLKKYGIPFDKVTQEAGEFMITFPYGYHAGFNHGFNCAESTNFATRRWIEYGKQAVLCSC |  | 52 ± 11 µM |  |
